The source of these data is US20160361311A1, “LIGANDS THAT TARGET HEPATITIS C VIRUS E2 PROTEIN” (AMERICAN UNIVERSITY OF CAIRO, priority 2014, published 2016).

What is called CC50 is the concentration at which the toxic effect on the cells reaches its halfway point. Lower therefore signals greater toxicity to the cells. What is called IC50 is the concentration at which inhibition is half-maximal.

Series [1] is described as follows: MTS viability / hepatocyte toxicity assay. The class given is cell-based. As to conditions: human. The method, then: (§1) The analysis of the effect of 281816 ligand on Huh-7 infection by HCVpp bearing envelope proteins from different genotypes was performed in 24-well plates using the method described above. This ligand was also screened for toxicity to the hepatocytes using the MTS (3-(4,5-dimethylthiazol-2-yl)-5-(3-carboxymethoxyphenyl)-2-(4-sulfophenyl)-2Htetrazolium) assay.
(§2) The remaining ligands were next tested against pseudotyped retroviral particles harboring genotype-2a HCV envelope proteins (HCVpp 2a), cell culture produced HCV particles (HCVcc) or RD114pp. As a positive control, an anti-CD81 antibody was used in parallel.

Another series concerns hepatocytes. In words: MTS viability / hepatocyte toxicity assay. The class given is cell-based. To be noted: over the concentrations tested in the infection assays, highest 10 μM. The method, then: as §1, §2
A further series concerns the target T1, recombinant E2 protein (Hepatitis C virus genotype 1b, UniProt Q9WMX2).
T1 construct: encoding amino acids 384-656 of the Con1 envelope protein 2 ectodomain (eE2); made in house; host or cells: HEK293T cells (lentiviral, secreted)
The series can be described thus: Surface plasmon resonance (Biacore T100) binding to recombinant E2 immobilized on CM5 chip. An excerpt: A construct containing the sequence encoding amino acids 384-656 of the Con1 envelope protein 2 ectodomain (eE2), a genoptype 1 E2 sequence, was cloned into a lentiviral expression vector with a carboxy-terminal Protein A tag separated by a PreScission Protease cleavage consensus sequence. eE2-ProtA was stably expressed in HEK293T cells using lentiviral infection. The protein was secreted into the media and supernatants were purified using IgG Sepharose (GE Healthcare, Piscataway, N.J.). eE2-ProtA was eluted with 100 mM sodium citrate and 20 mM KCl at pH 3 directly into tubes containing 1M Tris pH 9 for immediate neutralization. PreScission Protease was added to the eluted sample at a ratio of 1:50 (enzyme:eE2), and the digest was then dialyzed into 20 mM HEPES pH 7.5, 250 mM NaCl, 5% glycerol. eE2 was separated from the cleaved tag and the PreScission Protease by ion exchange chromatography.
The set of 34 of the ligands predicted by AutoDock to bind to E2 were tested experimentally to determine if they bind to recombinant E2 protein immobilized on a chip using surface Plasmon resonance. The SPR analyses were performed using a Biacore T100 workstation (GE Healthcare, NJ, USA) and Prot-A-tagged HCV E2 protein. 1 μM ProtA-HCV E2 was diluted into 10 mM sodium acetate buffer pH 5 and immobilized for 15 min at a flow speed of 5 μl/min onto a CM5 sensor chip using amine coupling (EDC-NHS). Approximately 10,000 response units (RU) of protein were immobilized on the chip. His-CD81-LEL (Bioclone-CA/USA) binding to HCV E2 was tested prior to injecting the ligands to confirm the E2 protein was functional and would bind CD81-LEL. In a typical experiment with CD81, […] of his-CD81 in 114 μl PBS was injected into channel 2 and 106.4 RUs of CD81 bound to the E2 on the chip. This was followed by testing the binding of the 34 virtual screening hits where the ligands were prepared as 200 μM solutions in PBS and they were introduced to the protein using a pre-programmed 3 min association and 1 min dissociation interval. The response was measured at two time points during dissociation, 10 and 50 seconds, to obtain information on the rate of ligand dissociation from E2. Twenty-three of the ligands predicted by AutoDock to bind to E2 were observed by SPR to bind to the recombinant protein (Table 2). The measured responses for the ligands that bound varied from 54 to 276 RUs. Data was also obtained on the rate of ligand dissociation by measuring the amount of ligand remaining bound at two time points, dissociation 1 (10 seconds) and dissociation 2 (50 seconds), during the rinsing of the chip with buffer (FIG. 8). The majority of the ligands dissociated quickly, as one might expect for small molecules that bind to the surface of a protein.

In another series the test system is RD114pp. The series can be described thus: RD114pp infection of Huh-7 cells (luciferase). Format: cell-based, feline endogenous virus RD114. As to conditions: Feline endogenous virus RD114, Huh-7, 30 h, read-out: IC50 RD114pp. As to the method:
Pseudotyped retroviral particles harboring HCV envelope proteins (HCVpp) from different genotypes were produced as described previously. A plasmid encoding the feline endogenous virus RD114 glycoprotein [35] was used for the production of RD114pp. Both HCVpp and RD114pp expressed Firefly luciferase.
To identify ligands that inhibit HCV infection, Huh-7 cells were seeded in 96-well plates and treated the day after with six different concentrations of each ligand diluted in DMSO in duplicate using a Zephyr automated liquid handling workstation (Caliper BioSciences, Hopkinton, Mass.). The final concentration of DMSO (1%) was adjusted to be the same for all ligand concentrations. Cells treated with DMSO were used as negative controls. Cells treated with different concentrations of anti-CD81 (JS-81 from BD Pharmingen, San Jose, Calif.) 1 hour before infection, were also used as positive controls. The third day, RD114pp, HCVpp or HCVcc were inoculated and incubated for 30 hours at 37° C. Firefly and Gaussia luciferase assays were performed as indicated by the manufacturer (Promega, San Luis Obispo, Calif.).
Pseudotyped retroviral particles harboring the envelope protein of an endogenous feline retrovirus (RD114pp) were first used to determine the specificity and the safety of molecules.

T1 sequence (Q9WMX2 384-656): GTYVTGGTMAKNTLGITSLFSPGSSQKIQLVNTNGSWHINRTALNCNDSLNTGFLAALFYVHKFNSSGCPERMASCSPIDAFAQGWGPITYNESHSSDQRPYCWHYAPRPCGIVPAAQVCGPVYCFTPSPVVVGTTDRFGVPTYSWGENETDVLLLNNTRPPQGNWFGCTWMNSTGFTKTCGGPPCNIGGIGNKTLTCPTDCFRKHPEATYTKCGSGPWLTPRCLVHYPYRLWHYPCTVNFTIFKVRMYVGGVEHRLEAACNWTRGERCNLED

In series [1], `CSc1ccc2c(c1)C(N1CCN(C)CC1)Cc1ccccc1S2` (stereo not drawn) [Ligand 281816] registered a CC50 of 14 µM. In addition, in the series on hepatocytes, the hepatocyte toxicity result is reported as “not observed”. For the same compound, the “Binding (RU)” value on recombinant E2 protein (200 μM ligand in PBS, 3 min association) is 64.5 RU. Moreover, at recombinant E2 protein (response remaining 10 sec after rinsing with buffer), the “Dissociation 1 (RU)” value was 3.7 RU. Besides, the “Dissociation 2 (RU)” value at recombinant E2 protein (response remaining 50 sec after rinsing with buffer) is 0.9 RU. The IC50 in the series with RD114pp is above 10 µM.
